Source: US20150328329A1, “LIGANDS THAT TARGET HCV-E2 BINDING SITES ON CD81 AND THERAPEUTIC METHODS USING THEM” (American University of Cairo, priority 2012, published 2015)

How the values were obtained:
recombinant CD81-LEL = biological target: T1, recombinant CD81-LEL (Homo sapiens, UniProt P60033); test: Dual polarization interferometry (DPI) binding of ligands to immobilized recombinant CD81-LEL; settings: for DPI Response (Radians), ligand added to CD81 protein: Table B and b111; for DPI Response (Radians), ligand added to CD81 protein / DPI Radians: ligand 500 μM in PBS, 2.5% DMSO; for DPI Radians: Table A
T1 construct: the large extracellular loop of CD81 (CD81-LEL); GST; His; Shoshana Levy Lab, Stanford (gift)
T1 sequence (P60033 113-201 limits assumed): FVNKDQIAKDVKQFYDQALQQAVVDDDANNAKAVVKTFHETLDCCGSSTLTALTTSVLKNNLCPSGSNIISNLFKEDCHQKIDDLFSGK
Protocol: DPI analyses were performed using an AnaLight 4D workstation (Farfield Group, Manchester UK). The recombinant CD81-LEL was immobilized onto a Thiol AnaChip using Sulfo-GMBS as a cross-linker in PBS running buffer. Non-specific sites were blocked with digested casein. TRIS was used to cap the cross-linker, blocking any additional amines from covalently binding to the cross-linker on the chip surface. Ligands were prepared as a 20 mM stock solutions in DMSO. Each ligand was diluted to a final concentration of 500 μM in PBS just prior to injection (final DMSO concentration was 2.5%). PBS and DMSO mixed in the same ratio were used as a blank. Data collection and analysis were performed using the AnaLight Resolver.
Six of the more interesting ligand candidates being considered for use in creating a ligand conjugate (three calculated to bind to Site 1 and three calculated to bind to Site 2) were further tested to confirm binding using a second experimental technique, dual polarization interferometry. The results, shown in FIG. 6, confirmed that all six ligands bound to the protein. The relative rank in strength of binding of the Site 1 and 2 ligands, as determined by DPI, were also similar to the ranking obtained by SPR or calculated by AutoDock for the majority of the ligands. […] One reason for this observed difference in the DPI response may relate to conformational changes in the protein that occur when the small molecules bind. The change in radians measured using DPI when a ligand binds to a protein is known to result from a combination of two effects: 1) the resulting increase in mass/volume when the ligand binds to the protein on the surface of the chip and 2) a conformational change in the protein induced by the binding of the ligand. Molecules binding in the deeper cavity would be expected to have more and stronger contacts with the protein than ligands sitting exposed to solvent in shallow cavities or surface binding sites. […]

[1] = biological target: T2, recombinant CD81-LEL (GST tag) (Homo sapiens, UniProt P60033); test: Surface plasmon resonance (Biacore T200) binding of ligands to immobilized recombinant CD81-LEL; settings: Table A; ligand 600 μM in PBS-0.05% Tween-80; CD81-LEL-GST on CM5 chip
T2 construct: the large extracellular loop of CD81 (CD81-LEL); gift of Dr. Shoshana Levy, Stanford University
T2 sequence (P60033 113-201 limits assumed): T1 sequence (P60033 113-201 limits assumed)
Protocol: SPR analysis was performed using a Biacore T200 workstation (GE Healthcare, NJ, USA). A recombinant form of the CD81-LEL protein with a GST tag (generously provided by Dr. Shoshana Levy, Stanford University) was used to confirm, using an established experimental technique, the binding of several ligands to the protein. Briefly, 10 μM CD81-LEL-GST diluted into 10 mM Na-Acetate buffer pH 4.5 was immobilized for 15 min at a flow speed of 5 μl/min onto a CM5 sensor chip using amine-coupling (EDC-NHS). Approximately 20,000 RU of protein were immobilized on the chip. The ligands were prepared as 600 μM solutions in PBS-0.05% Tween-80 (the running buffer) and they were introduced to the protein using a pre-programmed 3 minute association and 1 minute dissociation interval.
The binding affinity of the most tightly bound ligand in the group selected for ligand conjugate design (Ligand 1) was estimated using data collected from a series of SPR binding experiments conducted at different ligand concentrations. To obtain the kinetic and affinity data needed to estimate the Kd, the original ligand was diluted serially with running buffer to produce seven different ligand concentrations: 1024 μM, […], 256 μM, 128 μM, 64 μM, 32 μM and 0 μM. Data were fitted using a monovalent binding model.
A total of 36 ligands were tested experimentally using surface Plasmon resonance (on a Biacore T200 instrument) to identify which of the molecules calculated to bind to Sites 1 and 2 on CD81 actually bind to a recombinant form of the protein (CD81-LEL). Twenty-six of the molecules provided a positive change in response units (RU) upon introduction to a chip containing the immobilized protein (Table A), indicating the ligands bound to the protein. The measured responses for the ligands that bound varied from 2.3 to 78.4 RU. Those ligands providing the largest responses tended to be molecules that were calculated to bind more deeply inside cavities in Site 1 (ligands 30930, 98026, 7436, 5069), Site 2 (ligands 127947, 38743) or Site 4 (ligands 78623, 16631).
Experimental analysis of ligand binding to recombinant CD81 LEL. Forty ligands calculated by AutoDock to bind to sites 1 and 2 on CD81-LEL were tested experimentally using surface Plasmon resonance as described in the Materials and Methods section. Ligand code numbers are those assigned by the National Cancer Institute. […] Because the binding experiments were performed by passing the same concentration of each ligand sequentially across the same protein coated chip using both techniques, the magnitude of the responses can be used to provide an approximate ranking of binding strength.

[2] = biological target: T3, native CD81 on Raji cells (Homo sapiens, UniProt P60033); test: Competition assay: inhibition of FITC-labeled JS-81 anti-CD81 antibody binding to native CD81 on live Raji cells (flow cytometry); assay type: cell-based
T3 construct: endogenous in cells; host or cells: Raji (human B cell line)
T3 sequence (P60033 1-236): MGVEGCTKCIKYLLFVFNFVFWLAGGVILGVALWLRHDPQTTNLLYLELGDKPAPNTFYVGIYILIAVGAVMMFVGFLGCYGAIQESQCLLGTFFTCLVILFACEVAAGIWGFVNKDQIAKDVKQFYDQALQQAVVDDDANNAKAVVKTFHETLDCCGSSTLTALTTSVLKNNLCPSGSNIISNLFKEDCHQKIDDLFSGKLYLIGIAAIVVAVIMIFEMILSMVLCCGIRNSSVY
Text: A subset of these ligands and some of those listed in the patent have been tested to identify those ligands that bind to the correct region of the CD81 protein and for binding to native CD81 on living cells (a Raji cell line). This assay tests three concentrations of the ligand to determine if the ligand is capable of inhibiting the binding of an antibody called JS-81. This antibody is known to bind to the region of the CD81 protein we have targeted. If the ligand decreases JS-81 binding as you increase the concentration of the ligand, it is 1) binding to native CD81 on the Raji cells and 2) it is binding to the correct region of the protein.
For antibody neutralization assay Raji cells were used, a human B cell line that expressed high amounts of CD81 on the surface (data not shown). Cells were grown in RPMI medium (10% FCS, 1% penicillin/streptomycin, 1% L-glutamine, 1% non-essential amino acids, 1% sodium pyruvate, pH 7.4, at 37° C. with 5% CO2). 2×10^5 cells were incubated with or without different concentrations (50 μM, 100 μM, 400 μM and 1 mM) of indicated inhibitor for 20 min at room temperature, subsequently 1 ul (16 ng/μl) of FITC-labeled anti CD81 antibody (BD Pharmingen, 551108) was added to the cells and incubated for 20 min (antibody titration was performed to obtain a working dilution range, data not shown). Cells were washed and analyzed by flow cytometry using fluorescence-activated cell sorting (FACS) (BD FACSCalibur, software: Cell Quest Pro). Mean Fluorescence Intensity MFI was calculated using Flowjo software (TreesStar, www.flowjo.com).

HCV E2 binding to CD81 = biological target: T4, HCV E2 binding to CD81 (Homo sapiens, UniProt P60033); test: DPI assay of ligands blocking HCV E2 protein binding to CD81; settings: Table D; E2 Protein alone gives 4.1402; reduced response = blocking
T4 sequence (P60033 113-201 limits assumed): T1 sequence (P60033 113-201 limits assumed)
Protocol: A subset of the ligands identified to bind to CD81 have been tested using Dual Polarization Interferometry (DPI) to determine if the ligands themselves are effective in blocking E2 binding to CD81. The experiments are conducted by first immobilizing one of the proteins (HCV E2 or CD81) on the chip used to perform the assay. The other protein is then introduced to the chip and the amount of binding is measured. This protein is then washed off and the protein and one of the ligands are then introduced to the chip. If the ligand blocks/interferes with the binding of the two proteins, the DPI response (measured in Radians) is reduced compared to when the protein is added alone. After the measurement is made, the protein and ligand are washed off and the next combination of the protein and a different ligand are added to the chip and the DPI response is measured. Similar experiments can be performed in which the protein is mixed with two or more ligands to see if they have a greater effect when combined.
Experiments have been conducted with either CD81 or HCV E2 immobilized on the chip. Six ligands have been tested to date.

O=C(OCc1ccccc1)c1ccccc1O [Benzyl salicylate, reference compound]
DPI Response (Radians), ligand added to CD81 protein (recombinant CD81-LEL): 0.5818 Radians | DPI Response (Radians), ligand added to CD81 protein (recombinant CD81-LEL; listed as benzyl salicylate): 0.58 Radians

CC(C)(C)c1ccc(NS(=O)(=O)c2ccc(N)cc2)cc1 [Ligand 7436]
SPR Response Units [1]: 78.4 RU | Inhibition of JS-81 Binding (%) ([2]; 50 μM ligand): 0% | Inhibition of JS-81 Binding (%) ([2]; 100 μM ligand): 12% | Inhibition of JS-81 Binding (%) ([2]; 400 μM ligand): 11%

O=C(O)c1cc2cc(OCc3ccccc3)ccc2[nH]1 [Ligand 30930]
SPR Response Units [1]: 67.7 RU | Inhibition of JS-81 Binding (%) ([2]; 50 μM ligand): 0% | Inhibition of JS-81 Binding (%) ([2]; 100 μM ligand): 0% | Inhibition of JS-81 Binding (%) ([2]; 400 μM ligand): 14% | DPI Binding Response (Radians), E2 Protein added to CD81 together with ligand(s) (HCV E2 binding to CD81): 2.5262 Radians | DPI Binding Response (Radians), molecule added alone to CD81 (recombinant CD81-LEL; Table D, single molecule added to CD81): 1.102 Radians

O=C(O)Cn1cnc2c(=S)nc[nH]c21 [Ligand 36914]
DPI Radians (recombinant CD81-LEL): 0.1448 Radians

O=C(O)CCC1(c2ccccc2)NC(=O)NC1=O (stereo not drawn) [Ligand 38743]
SPR Response Units [1]: 30.6 RU | DPI Response (Radians), ligand added to CD81 protein (recombinant CD81-LEL): 0.8593 Radians

O=C(O)c1ccccc1C(=O)Nc1ccccc1[N+](=O)[O-] [Ligand 41066]
DPI Radians (recombinant CD81-LEL): 0.2700 Radians

CC(C)CNC(=O)/C=C\C(=O)O [Ligand 55573]
SPR Response Units [1]: 10.6 RU

O=C(O)CCCCC1SCC2NC(=O)NC21 (stereo not drawn) [Ligand 63865]
SPR Response Units [1]: 58 RU

O=C(Nc1ccc(O)c(C(=O)O)c1)Oc1ccccc1 [Ligand 68971]
SPR Response Units [1]: 12.1 RU

N=C(N)N/N=C/c1c(Cl)cccc1Cl [Ligand 68982]
SPR Response Units [1]: 41.2 RU | Inhibition of JS-81 Binding (%) ([2]; 50 μM ligand): 0% | Inhibition of JS-81 Binding (%) ([2]; 100 μM ligand): 13% | Inhibition of JS-81 Binding (%) ([2]; 400 μM ligand): 15%

Nc1nc(O)c(CC(=O)O)s1 [Ligand 70980]
SPR Response Units [1]: 14.1 RU
